Key:
[1] = molecular target: T1, Mineralocorticoid receptor (Homo sapiens, UniProt P08235)
T1 sequence (P08235 whole entry): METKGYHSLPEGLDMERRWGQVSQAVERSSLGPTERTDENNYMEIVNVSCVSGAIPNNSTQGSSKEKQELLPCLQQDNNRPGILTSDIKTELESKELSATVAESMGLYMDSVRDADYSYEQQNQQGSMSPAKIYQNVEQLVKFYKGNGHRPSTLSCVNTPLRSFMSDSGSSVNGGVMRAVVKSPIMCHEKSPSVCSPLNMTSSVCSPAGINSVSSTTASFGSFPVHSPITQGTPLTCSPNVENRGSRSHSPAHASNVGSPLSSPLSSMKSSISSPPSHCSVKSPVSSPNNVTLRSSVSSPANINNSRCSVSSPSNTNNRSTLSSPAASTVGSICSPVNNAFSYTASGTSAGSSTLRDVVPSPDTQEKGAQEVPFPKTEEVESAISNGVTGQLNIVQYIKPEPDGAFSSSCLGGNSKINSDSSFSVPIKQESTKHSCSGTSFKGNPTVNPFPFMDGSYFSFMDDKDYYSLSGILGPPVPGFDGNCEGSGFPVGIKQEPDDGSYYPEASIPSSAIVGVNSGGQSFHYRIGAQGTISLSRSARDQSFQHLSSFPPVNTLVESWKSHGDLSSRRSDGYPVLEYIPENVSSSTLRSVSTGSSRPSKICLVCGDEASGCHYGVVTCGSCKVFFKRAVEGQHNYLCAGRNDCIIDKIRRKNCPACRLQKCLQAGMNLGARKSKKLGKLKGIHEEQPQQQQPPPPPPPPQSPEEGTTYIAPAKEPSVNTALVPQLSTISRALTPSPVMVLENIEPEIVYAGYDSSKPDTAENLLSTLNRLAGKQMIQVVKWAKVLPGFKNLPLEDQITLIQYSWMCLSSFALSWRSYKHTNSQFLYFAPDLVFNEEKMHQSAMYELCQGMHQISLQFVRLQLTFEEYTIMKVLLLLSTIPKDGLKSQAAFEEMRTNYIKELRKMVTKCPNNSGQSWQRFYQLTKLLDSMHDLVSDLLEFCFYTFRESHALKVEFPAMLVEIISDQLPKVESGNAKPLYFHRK
Description: Antagonist activity at mineralocorticoid receptor ligand binding domain expressed in african green monkey COS7 cells co-transfected with Gal4-LBD by luciferase reporter gene assay

Estrogen receptor = molecular target: T2, Estrogen receptor (Homo sapiens, UniProt P03372); assay: Agonist activity at estrogen receptor alpha ligand binding domain expressed in african green monkey COS7 cells co-transfected with Gal4-LBD by luciferase reporter gene assay; format: cell-based, COS-7
T2 sequence (P03372 whole entry): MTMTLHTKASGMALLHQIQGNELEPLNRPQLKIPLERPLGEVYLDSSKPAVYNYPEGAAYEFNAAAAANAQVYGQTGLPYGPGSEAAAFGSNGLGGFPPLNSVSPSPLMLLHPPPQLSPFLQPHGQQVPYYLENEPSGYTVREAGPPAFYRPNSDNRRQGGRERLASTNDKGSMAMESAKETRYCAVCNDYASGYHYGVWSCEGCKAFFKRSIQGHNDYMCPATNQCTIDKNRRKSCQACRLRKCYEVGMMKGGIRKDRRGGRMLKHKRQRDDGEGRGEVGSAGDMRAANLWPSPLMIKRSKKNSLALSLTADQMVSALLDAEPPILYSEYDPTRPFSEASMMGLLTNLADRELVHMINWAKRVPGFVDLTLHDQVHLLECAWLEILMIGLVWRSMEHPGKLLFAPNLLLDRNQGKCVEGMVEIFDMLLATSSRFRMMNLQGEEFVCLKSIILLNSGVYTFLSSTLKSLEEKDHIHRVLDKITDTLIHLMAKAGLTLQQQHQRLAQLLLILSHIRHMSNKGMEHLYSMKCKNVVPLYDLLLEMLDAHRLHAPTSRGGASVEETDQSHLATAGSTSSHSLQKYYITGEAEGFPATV

Estrogen receptor beta [2] = molecular target: T3, Estrogen receptor beta (Homo sapiens, UniProt Q92731); assay: Agonist activity at estrogen receptor beta ligand binding domain expressed in african green monkey COS7 cells co-transfected with Gal4-LBD up to 10 uM by luciferase reporter gene assay; format: cell-based; conditions: cos-7
[3] = molecular target: T1, Mineralocorticoid receptor; assay: Agonist activity at mineralocorticoid receptor ligand binding domain expressed in african green monkey COS7 cells co-transfected with Gal4-LBD up to 10 uM by luciferase reporter gene assay; format: cell-based; conditions: cos-7
Estrogen receptor beta [4] = molecular target: T3, Estrogen receptor beta
[5] = molecular target: T4, Estrogen receptor (Homo sapiens) (UniProt P03372); assay: Agonist activity at estrogen receptor alpha ligand binding domain expressed in african green monkey COS7 cells co-transfected with Gal4-LBD by luciferase reporter gene assay relative to control; format: cell-based; conditions: COS-7
T4 sequence (whole entry): T2 sequence (P03372 whole entry)

Progesterone receptor = molecular target: T5, Progesterone receptor (Homo sapiens, UniProt P06401)
T5 sequence (P06401 whole entry): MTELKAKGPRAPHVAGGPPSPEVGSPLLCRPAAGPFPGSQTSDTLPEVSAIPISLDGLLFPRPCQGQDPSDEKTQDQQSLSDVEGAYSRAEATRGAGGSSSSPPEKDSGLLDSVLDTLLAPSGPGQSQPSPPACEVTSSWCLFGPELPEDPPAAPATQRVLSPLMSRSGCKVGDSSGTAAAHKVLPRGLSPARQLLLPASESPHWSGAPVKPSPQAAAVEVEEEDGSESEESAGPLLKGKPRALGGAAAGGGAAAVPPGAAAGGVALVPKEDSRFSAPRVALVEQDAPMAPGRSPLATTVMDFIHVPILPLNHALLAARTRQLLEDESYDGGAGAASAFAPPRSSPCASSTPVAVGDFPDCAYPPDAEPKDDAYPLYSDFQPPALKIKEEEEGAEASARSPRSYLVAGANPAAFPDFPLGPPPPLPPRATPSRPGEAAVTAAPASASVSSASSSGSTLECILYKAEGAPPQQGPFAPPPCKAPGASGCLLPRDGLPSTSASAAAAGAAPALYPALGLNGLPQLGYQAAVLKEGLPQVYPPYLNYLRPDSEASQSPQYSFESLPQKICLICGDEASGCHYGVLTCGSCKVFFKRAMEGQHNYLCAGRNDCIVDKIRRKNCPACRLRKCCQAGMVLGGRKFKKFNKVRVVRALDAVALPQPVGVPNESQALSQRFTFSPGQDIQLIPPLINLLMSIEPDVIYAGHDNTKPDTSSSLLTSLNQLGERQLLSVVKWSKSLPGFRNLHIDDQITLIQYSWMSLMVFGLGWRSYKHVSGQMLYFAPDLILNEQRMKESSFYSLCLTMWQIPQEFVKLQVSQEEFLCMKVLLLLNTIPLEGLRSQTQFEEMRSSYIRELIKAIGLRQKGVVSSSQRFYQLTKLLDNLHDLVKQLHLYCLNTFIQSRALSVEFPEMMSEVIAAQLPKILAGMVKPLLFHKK

Estrogen receptor beta [6] = molecular target: T3, Estrogen receptor beta; assay: Antagonist activity at estrogen receptor beta ligand binding domain expressed in african green monkey COS7 cells co-transfected with Gal4-LBD by luciferase reporter gene assay relative to control; format: cell-based; set-up: scale not given: the % may be the effect or the level left; conditions: COS-7

T3 sequence (Q92731 whole entry, the tested form may be a part): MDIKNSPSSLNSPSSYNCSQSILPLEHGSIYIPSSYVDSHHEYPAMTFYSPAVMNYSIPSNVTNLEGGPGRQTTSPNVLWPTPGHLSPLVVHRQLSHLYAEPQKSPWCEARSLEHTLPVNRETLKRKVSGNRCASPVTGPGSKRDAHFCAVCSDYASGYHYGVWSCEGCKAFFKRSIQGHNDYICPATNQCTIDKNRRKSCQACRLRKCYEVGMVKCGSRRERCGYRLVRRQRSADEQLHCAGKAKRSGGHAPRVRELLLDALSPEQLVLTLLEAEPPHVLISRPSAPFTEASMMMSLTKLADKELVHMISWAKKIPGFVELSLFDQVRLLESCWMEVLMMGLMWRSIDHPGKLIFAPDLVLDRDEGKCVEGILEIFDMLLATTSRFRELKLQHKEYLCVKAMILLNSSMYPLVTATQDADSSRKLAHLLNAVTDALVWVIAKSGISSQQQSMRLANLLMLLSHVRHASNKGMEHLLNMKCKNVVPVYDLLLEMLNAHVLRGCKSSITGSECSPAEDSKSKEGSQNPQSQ

Row | Compound | IC50 [1] [mM] | EC50 (Estrogen receptor) [µM] | EC50 (Estrogen receptor beta [2]) | EC50 [3] | IC50 (Estrogen receptor beta [4]) [µM] | Activity [5] [%] | EC50 (Progesterone receptor) [nM] | Activity (Estrogen receptor beta [6]) [%]
1 | CC1(C)[C@H](O)CC[C@]2(C)[C@@]3(C)c4[nH]c5ccccc5c4C[C@@H]3CC[C@@]12O [LECANINDOLE D] | > 3 | > 10 | Not Active | Not Active | > 3 | 35 | 1.1 | 64
2 | CC1(C)C(=O)CC[C@]2(C)[C@@]3(C)c4[nH]c5ccccc5c4C[C@@H]3CC[C@@]12O [LECANINDOLE B] | > 10 | > 10 | Not Active | Not Active | > 10 | 8 | 0.3 | 12

Source: ChEMBL document CHEMBL1154793, “The lecanindoles, nonsteroidal progestins from the terrestrial fungus Verticillium lecanii 6144” (J Nat Prod, 2009)
